This is an account of results in EP4623928A1, “GLP-1R ANTAGONISTS FOR THE TREATMENT OF CANCER” (Fiorina, Paolo, priority 2024, dated 2025).

Experiment [1] concerns GLP-1R^pos and GLP-1R^neg CD3^+ T cells. Put plainly: Proliferation, apoptosis and IFN-γ expression of GLP-1Rpos and GLP-1Rneg CD3+ T cells stimulated with anti-CD3/anti-CD28. In kind it is cell-based, C57BL/6 mice. As to conditions: for proliferation rate: anti-CD3/anti-CD28. As for the experimental part: FACS analysis was performed with a FACSCelesta (BD Bioscience) on murine splenocytes or on single cells suspension prepared upon collagenase-digestion of grafted organs. We used the following antibodies: APC conjugated Rat anti-mouse CD62L, PE conjugated Rat anti-mouse CD44, PerCp conjugated Rat anti-mouse CD4 or PerCp conjugated Rat anti-mouse CD8, (Biolegend, San Diego, CA, USA), and APC conjugated anti-mouse/human insulin (R&D, Minneapolis, MN - USA). GLP-1R was detected by indirect staining; the primary antibody was purchased from Alomone Lab (Jerusalem, Israel) and variably associated with FITC or APC-conjugated anti-isotype Ab (BD and Biolegend respectively). For intracellular staining, splenocytes were isolated from BL6 mice were incubated with and w/o anti CD3/CD28 used both at 0.5 µg/ml, Exe-4 (0.1nM, 1nM and 10nM) or with Exe-4+Exe-9-39 (0.1nM, 1nM and 10nM). After 24hours incubation, cells were collected, washed and plated in RPMI 10% FBS, then stimulated with 50 ng/ml PMA (Sigma Aldrich), 500 ng/ml ionomycin (Sigma Aldrich) and Golgi Stop as recommended by the manufacturer (BD Biosciences, San Diego, CA, USA) for 4h in a humidified incubator 37°C, 5% CO2. After incubation, cells were collected, washed and stained for surface markers, i.e CD4 BUV737, CD8 BUV395, (BD Biosciences, San Diego, CA, USA) and GLP-1R FITC (Alomone Lab, Jerusalem, Israel). They were further fixed, permeabilized using the BD Cytofix/Cytoperm Kit (BD Biosciences, San Diego, CA, USA), and stained with a mAb against IFN-γ (eBioscience). Finally, CD4^+ GLP-1R^+ IFN-γ^+ and CD8^+ GLP-1R^+ IFN-γ ^+ T cells were assessed by flow cytometry analysis. For the expression of GLP-1R on innate immune cells, the following antibodies were used: CD4 BB700, NK1.1 BV421, CD127 BV605, CD44 PE, GLP-1R FITC/PD1 FITC, Viability Dye BV510 (NKT subset); CD45 BV786, CD3 BB700, NK1.1 BV421, GLP-1R FITC/PD1 FITC, Viability Dye BV510 (NK subset); CD45 BB700, CD11c BV786, CD11b BV421, GLP-1R FITC/PD1 FITC, Viability Dye BV510; CD45 PE-CF594, CD127 BV605, NK1.1 BV421, CD335 BV786, CD49a BV650, CD117 BB700, IL33R PE, IL23R BV711, GLP-1R FITC/PD1 FITC, Viability Dye BV510 (LCs subset). For the determination of the chemokine receptors profile of GLP-1R^+ CD3^+ T cells, the following antibodies were used: GLP-1R FITC, CXCR4 PE, CX3CR1 BV605, CCR2 BV421, CCR5 BV650, CCR7 BV786, CXCR3 BB700, CXCR6 BV711, Viability Dye BV510.

Experiment [2] deals with CD3^+ T cells. Put plainly: Phosphoproteomic array of CD3+ T cells. In kind it is cell-based, murine. The conditions noted are these: Exe-4 (1 nM), 24 hours, vs untreated. Here is the method:
Isolated CD3^+ T cells from splenocytes were treated with Exendin-4 (Exe-4) for 24hrs or left untreated. Total soluble proteins from both cell extracts, approximately 7×10^6 cells per conditions were used, all steps were performed using the Phospho Explorer Antibody Array kit (Full Moon Biosystems, PEX100) as recommended by the manufacturer (41). Next, soluble extracted proteins were biotinylated and were next incubated with a mixture of Cy3-streptavidin-detection buffer and the array slides were incubated on a rotating shaker for 30 min at RT. After, several washing steps, the array slides were allowed to dry by centrifugation. Dry array slides were analyzed by a slide-based microarray scanner as recommended by the manufacturer.

In experiment [3] the test system is islet allografts. Put plainly: Murine islet allotransplantation (BALB/c islets into STZ-treated C57BL/6 mice). In kind it is in vivo. As for the experimental part: Pancreatic islets from BALB/c mice were isolated by collagenase digestion and density gradient separation as previously described (33, 34). Subsequently, four to five hundred islets were inoculated under the renal capsule of each C57BL/6 recipient rendered diabetic with streptozotocin (STZ) (200 mg/kg, administered i.p. Sigma-Aldrich). Islet transplantation success was confirmed by glycaemia normalization. Rejection of islet allografts was defined as blood glucose levels >250 mg/dl for at least 2 consecutive days (35). Treatment modalities were the following: transplanted mice were intraperitoneally injected according to the following protocols: 1) Exendin-4 (Exe-4) (Amylin Pharmaceuticals, San Diego, CA -USA) 0.2pg twice/day for two weeks after transplant; 2) Exe-4 0.2pg twice/day from the day before until two weeks after transplant; 3) Exendin-4 2µg twice/day from the day before until two weeks after transplant; 4) Exendin-4 2µg twice/day + Exendin-9-39 (Exe-9) (Sigma-Aldrich) 2µg twice/day from the day before until two weeks after transplant; 5) Exendin-4 2µg twice/day from the day before until two weeks after transplant + Rapamycin 0.1mg/die for two weeks; 6) saline 0.5ml twice/day for two weeks. The follow-up of the transplanted mice was for 100 days.

Exendin-4 [Exe-4]: the proliferation rate entry in experiment [1] (GLP-1R^neg CD3^+ T cells, Exe-4 (1 nM)) is listed as “but not of GLP-1R^neg CD3^+ T cells”; in experiment [1] (GLP-1R^pos CD3^+ T cells, Exe-4 (1 nM)), “slightly modulated”. Besides, the IFN-y expression result in experiment [1] (GLP-1R^pos and GLP-1R^neg CD3^+ T cells, Exe-4 (1 nM)) was “no evident effect”. For the same substance, the “apoptosis (GLP-1R^pos more apoptotic than GLP-1R^neg)” value in experiment [1] (GLP-1R^pos vs GLP-1R^neg CD3^+ T cells, with or without Exe-4) is “independently of Exe-4 treatment”. Further, the “expression and activation of signalling molecules (phosphoproteomic arrays)” value in experiment [2] was “altered the expression and the activation of several signalling molecules”. Besides, the “recipients with prolongation of islet survival up to 100 days” value worked out at 60% in experiment [3] (high doses of Exe-4 preceded by a pre-treatment) and 20% in experiment [3] (low dose of Exe-4). Besides, the “[MST] (islet allograft survival)” value in experiment [3] (high doses of Exe-4 preceded by a pre-treatment (2µg twice/day, i.p.), p<0.001 vs untreated) turned out to be 67 days; in experiment [3] (low dose of Exe-4 (b66 prints 0.2pg twice/day, i.p.), untreated [MST]=12 days, p=0.001) it was 41 days. In addition, in experiment [3] (islet allograft at day 14, Exe-4-treated mice), the “graft infiltration (Hematoxylin and eosin staining)” value is “decreased graft infiltration”. Also, the “CD8^+ effector memory cells” value in experiment [3] (splenic, Exe-4 treatment) was “reduction”. For the same substance, the Treg lymphocytes result in experiment [3] (splenic, Exe-4 treatment) is “significant increase”.
